# Measured values from ChEMBL document CHEMBL1275533, “In vitro antibacterial activity of vertilmicin and its susceptibility to modifications by the recombinant AAC6'-APH2'' enzyme” (2008).
# Activity calls are given as the source filed them. The rule behind the calls is not given here.
# Key:
# Serratia marcescens [1] = assay: Antibacterial activity against gentamicin-resistant Serratia marcescens clinical isolate after 18 hrs by agar dilution method; assay type: functional
# Klebsiella aerogenes [2] = assay: Antibacterial activity against non-gentamicin-resistant Enterobacter aerogenes clinical isolate assessed as susceptible isolates after 18 hrs by agar dilution method; assay type: functional
# Staphylococcus aureus [3] = assay: Antibacterial activity against non-gentamicin-resistant Staphylococcus aureus clinical isolate after 18 hrs by agar dilution method; assay type: functional
# Enterobacter cloacae [4] = assay: Antibacterial activity against non-gentamicin-resistant Enterobacter cloacae clinical isolate assessed as susceptible isolates after 18 hrs by agar dilution method; assay type: functional
# Klebsiella aerogenes [5] = assay: Antibacterial activity against gentamicin-resistant Enterobacter aerogenes clinical isolate after 18 hrs by agar dilution method; assay type: functional
# Klebsiella pneumoniae [6] = assay: Antibacterial activity against non-gentamicin-resistant Klebsiella pneumoniae clinical isolate after 18 hrs by agar dilution method; assay type: functional
# Escherichia coli [7] = assay: Antibacterial activity against gentamicin-resistant Escherichia coli clinical isolate assessed as susceptible isolates after 18 hrs by agar dilution method; assay type: functional
# Citrobacter freundii [8] = assay: Antibacterial activity against non-gentamicin-resistant Citrobacter freundii clinical isolate after 18 hrs by agar dilution method; assay type: functional
# Escherichia coli [9] = assay: Antibacterial activity against gentamicin-resistant Escherichia coli clinical isolate after 18 hrs by agar dilution method; assay type: functional
# Citrobacter freundii [10] = assay: Antibacterial activity against non-gentamicin-resistant Citrobacter freundii clinical isolate assessed as susceptible isolates after 18 hrs by agar dilution method; assay type: functional
# Enterococcus faecalis = assay: Antibacterial activity against gentamicin-resistant Enterococcus faecalis clinical isolate assessed as susceptible isolates after 18 hrs by agar dilution method; assay type: functional, organism-based
# Haemophilus influenzae [11] = assay: Antibacterial activity against non-gentamicin-resistant Haemophilus influenzae clinical isolate assessed as susceptible isolates after 18 hrs by agar dilution method; assay type: functional, organism-based
# Serratia marcescens [12] = assay: Antibacterial activity against non-gentamicin-resistant Serratia marcescens clinical isolate assessed as susceptible isolates after 18 hrs by agar dilution method; assay type: functional
# [13] = system: Haemophilus parainfluenzae; assay: Antibacterial activity against non-gentamicin-resistant Haemophilus parainfluenzae clinical isolate assessed as susceptible isolates after 18 hrs by agar dilution method; assay type: functional, organism-based
# Pseudomonas sp. [14] = assay: Antibacterial activity against gentamicin-resistant Pseudomonas spp. clinical isolate after 18 hrs by agar dilution method; assay type: functional
# Morganella morganii [15] = assay: Antibacterial activity against non-gentamicin-resistant Morganella morganii clinical isolate after 18 hrs by agar dilution method; assay type: functional
# Proteus mirabilis = assay: Antibacterial activity against gentamicin-resistant Proteus mirabilis clinical isolate after 18 hrs by agar dilution method; assay type: functional
# Klebsiella aerogenes [16] = assay: Antibacterial activity against gentamicin-resistant Enterobacter aerogenes clinical isolate assessed as susceptible isolates after 18 hrs by agar dilution method; assay type: functional
# Citrobacter freundii [17] = assay: Antibacterial activity against gentamicin-resistant Citrobacter freundii clinical isolate assessed as susceptible isolates after 18 hrs by agar dilution method; assay type: functional
# Klebsiella pneumoniae [18] = assay: Antibacterial activity against gentamicin-resistant Klebsiella pneumoniae clinical isolate after 18 hrs by agar dilution method; assay type: functional
# [19] = system: Staphylococcus epidermidis; assay: Antibacterial activity against non-gentamicin-resistant Staphylococcus epidermidis clinical isolate assessed as susceptible isolates after 18 hrs by agar dilution method; assay type: functional
# Staphylococcus aureus [20] = assay: Antibacterial activity against gentamicin-resistant Staphylococcus aureus clinical isolate after 18 hrs by agar dilution method; assay type: functional
# Haemophilus influenzae [21] = assay: Antibacterial activity against non-gentamicin-resistant Haemophilus influenzae clinical isolate after 18 hrs by agar dilution method; assay type: functional
# Morganella morganii [22] = assay: Antibacterial activity against gentamicin-resistant Morganella morganii clinical isolate after 18 hrs by agar dilution method; assay type: functional
# Enterobacter cloacae [23] = assay: Antibacterial activity against non-gentamicin-resistant Enterobacter cloacae clinical isolate after 18 hrs by agar dilution method; assay type: functional
# Serratia marcescens [24] = assay: Antibacterial activity against gentamicin-resistant Serratia marcescens clinical isolate assessed as susceptible isolates after 18 hrs by agar dilution method; assay type: functional
# [25] = system: Acinetobacter calcoaceticus; assay: Antibacterial activity against gentamicin-resistant Acinetobacter calcoaceticus clinical isolate assessed as susceptible isolates after 18 hrs by agar dilution method; assay type: functional
# Morganella morganii [26] = assay: Antibacterial activity against non-gentamicin-resistant Morganella morganii clinical isolate assessed as susceptible isolates after 18 hrs by agar dilution method; assay type: functional
# [27] = system: Staphylococcus epidermidis; assay: Antibacterial activity against gentamicin-resistant Staphylococcus epidermidis clinical isolate assessed as susceptible isolates after 18 hrs by agar dilution method; assay type: functional
# Klebsiella aerogenes [28] = assay: Antibacterial activity against non-gentamicin-resistant Enterobacter aerogenes clinical isolate after 18 hrs by agar dilution method; assay type: functional
# Citrobacter koseri [29] = assay: Antibacterial activity against non-gentamicin-resistant Citrobacter diversus clinical isolate assessed as susceptible isolates after 18 hrs by agar dilution method; assay type: functional
# Citrobacter koseri [30] = assay: Antibacterial activity against gentamicin-resistant Citrobacter diversus clinical isolate assessed as susceptible isolates after 18 hrs by agar dilution method; assay type: functional
# Citrobacter koseri [31] = assay: Antibacterial activity against non-gentamicin-resistant Citrobacter diversus clinical isolate after 18 hrs by agar dilution method; assay type: functional
# Pseudomonas aeruginosa [32] = assay: Antibacterial activity against non-gentamicin-resistant Pseudomonas aeruginosa clinical isolate after 18 hrs by agar dilution method; assay type: functional
# Citrobacter koseri [33] = assay: Antibacterial activity against gentamicin-resistant Citrobacter diversus clinical isolate after 18 hrs by agar dilution method; assay type: functional
# Klebsiella pneumoniae [34] = assay: Antibacterial activity against gentamicin-resistant Klebsiella pneumoniae clinical isolate assessed as susceptible isolates after 18 hrs by agar dilution method; assay type: functional
# Enterobacter cloacae [35] = assay: Antibacterial activity against gentamicin-resistant Enterobacter cloacae clinical isolate after 18 hrs by agar dilution method; assay type: functional
# Pseudomonas aeruginosa [36] = assay: Antibacterial activity against non-gentamicin-resistant Pseudomonas aeruginosa clinical isolate assessed as susceptible isolates after 18 hrs by agar dilution method; assay type: functional
# Morganella morganii [37] = assay: Antibacterial activity against gentamicin-resistant Morganella morganii clinical isolate assessed as susceptible isolates after 18 hrs by agar dilution method; assay type: functional
# Escherichia coli [38] = assay: Antibacterial activity against non-gentamicin-resistant Escherichia coli clinical isolate assessed as susceptible isolates after 18 hrs by agar dilution method; assay type: functional
# Providencia rettgeri [39] = assay: Antibacterial activity against non-gentamicin-resistant Proteus rettgeri clinical isolate assessed as susceptible isolates after 18 hrs by agar dilution method; assay type: functional
# Pseudomonas sp. [40] = assay: Antibacterial activity against gentamicin-resistant Pseudomonas spp. clinical isolate assessed as susceptible isolates after 18 hrs by agar dilution method; assay type: functional
# Providencia rettgeri [41] = assay: Antibacterial activity against gentamicin-resistant Proteus rettgeri clinical isolate assessed as susceptible isolates after 18 hrs by agar dilution method; assay type: functional
# Staphylococcus aureus [42] = assay: Antibacterial activity against non-gentamicin-resistant Staphylococcus aureus clinical isolate assessed as susceptible isolates after 18 hrs by agar dilution method; assay type: functional
# [43] = system: Staphylococcus epidermidis; assay: Antibacterial activity against non-gentamicin-resistant Staphylococcus epidermidis clinical isolate after 18 hrs by agar dilution method; assay type: functional
# Providencia rettgeri [44] = assay: Antibacterial activity against gentamicin-resistant Proteus rettgeri clinical isolate after 18 hrs by agar dilution method; assay type: functional
compound,measurement,setting,value
NCC[C@H](O)C(=O)N[C@@H]1C[C@H](N)[C@@H](O[C@H]2O[C@H](CN)[C@@H](O)[C@H](O)[C@H]2O)[C@H](O)[C@H]1O[C@H]1O[C@H](CO)[C@@H](O)[C@H](N)[C@H]1O [AMIKACIN],MIC50,Serratia marcescens [1],> 128 µg/mL
same,MIC90,Serratia marcescens [1],> 128 µg/mL
same,Activity,Klebsiella aerogenes [2],100%
same,MIC50,Staphylococcus aureus [3],1 µg/mL
same,MIC90,Staphylococcus aureus [3],2 µg/mL
same,Activity,Enterobacter cloacae [4],96.4%
same,MIC50,Klebsiella aerogenes [5],16 µg/mL
same,MIC90,Klebsiella aerogenes [5],64 µg/mL
same,MIC50,Klebsiella pneumoniae [6],1 µg/mL
same,MIC90,Klebsiella pneumoniae [6],1 µg/mL
same,Activity,Escherichia coli [7],93%
same,MIC50,Citrobacter freundii [8],2 µg/mL
same,MIC90,Citrobacter freundii [8],4 µg/mL
same,MIC50,Escherichia coli [9],1 µg/mL
same,MIC90,Escherichia coli [9],4 µg/mL
same,Activity,Citrobacter freundii [10],100%
same,Activity,Enterococcus faecalis,inactive
same,Activity,Haemophilus influenzae [11],inactive
same,Activity,Serratia marcescens [12],96.3%
same,Activity,[13],inactive
same,MIC50,Pseudomonas sp. [14],> 128 µg/mL
same,MIC90,Pseudomonas sp. [14],> 128 µg/mL
same,MIC50,Morganella morganii [15],1 µg/mL
same,MIC90,Morganella morganii [15],2 µg/mL
same,MIC50,Proteus mirabilis,4 µg/mL
same,MIC90,Proteus mirabilis,> 128 µg/mL
same,Activity,Klebsiella aerogenes [16],55%
same,Activity,Citrobacter freundii [17],31.6%
same,MIC50,Klebsiella pneumoniae [18],1 µg/mL
same,MIC90,Klebsiella pneumoniae [18],> 128 µg/mL
same,Activity,[19],98.8%
same,MIC50,Staphylococcus aureus [20],8 µg/mL
same,MIC90,Staphylococcus aureus [20],128 µg/mL
same,MIC50,Haemophilus influenzae [21],8 µg/mL
same,MIC90,Haemophilus influenzae [21],16 µg/mL
same,MIC50,Morganella morganii [22],1 µg/mL
same,MIC90,Morganella morganii [22],4 µg/mL
same,MIC50,Enterobacter cloacae [23],2 µg/mL
same,MIC90,Enterobacter cloacae [23],4 µg/mL
same,Activity,Serratia marcescens [24],30%
same,Activity,[25],48%
same,Activity,Morganella morganii [26],96%
same,Activity,[27],73.1%
same,MIC50,Klebsiella aerogenes [28],1 µg/mL
same,MIC90,Klebsiella aerogenes [28],2 µg/mL
same,Activity,Citrobacter koseri [29],100%
same,Activity,Citrobacter koseri [30],35.7%
same,MIC50,Citrobacter koseri [31],1 µg/mL
same,MIC90,Citrobacter koseri [31],2 µg/mL
same,MIC50,Pseudomonas aeruginosa [32],4 µg/mL
same,MIC90,Pseudomonas aeruginosa [32],16 µg/mL
same,MIC50,Citrobacter koseri [33],32 µg/mL
same,MIC90,Citrobacter koseri [33],64 µg/mL
same,Activity,Klebsiella pneumoniae [34],82.1%
same,MIC50,Enterobacter cloacae [35],16 µg/mL
same,MIC90,Enterobacter cloacae [35],32 µg/mL
same,Activity,Pseudomonas aeruginosa [36],100%
same,Activity,Morganella morganii [37],83.3%
same,Activity,Escherichia coli [38],100%
same,Activity,Providencia rettgeri [39],84.6%
same,Activity,Pseudomonas sp. [40],7.7%
same,Activity,Providencia rettgeri [41],80%
same,Activity,Staphylococcus aureus [42],100%
same,MIC50,[43],0.5 µg/mL
same,MIC90,[43],2 µg/mL
same,MIC50,Providencia rettgeri [44],1 µg/mL
same,MIC90,Providencia rettgeri [44],32 µg/mL
